The assay has as its target T1, human CCR6 (Homo sapiens, UniProt P51684).
T1 construct: expressed in transfected cells; host or cells: Ba/F3 cells (murine pro-B line), hCCR6-transfected, CMV promoter, sodium butyrate induction
T1 sequence (P51684 1-374): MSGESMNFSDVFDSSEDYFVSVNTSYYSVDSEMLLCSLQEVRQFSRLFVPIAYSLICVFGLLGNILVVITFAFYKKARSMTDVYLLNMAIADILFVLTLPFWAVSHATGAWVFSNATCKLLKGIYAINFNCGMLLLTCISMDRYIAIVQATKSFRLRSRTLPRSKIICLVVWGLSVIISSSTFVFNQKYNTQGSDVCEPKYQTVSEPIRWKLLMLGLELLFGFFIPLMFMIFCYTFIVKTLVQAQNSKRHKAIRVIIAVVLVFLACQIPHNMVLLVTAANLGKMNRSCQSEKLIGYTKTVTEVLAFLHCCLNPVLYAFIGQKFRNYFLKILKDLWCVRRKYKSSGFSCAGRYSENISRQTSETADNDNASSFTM
The assay can be described thus: Migration (chemotaxis) assay, hCCR6-transfected Ba/F3 cells toward CCL20. Format: cell-based. Conditions: hCCR6-transfected Ba/F3 cells in human serum; recombinant human CCL20 10 nM; 37° C. 45 minutes; read-out: Potency (IC50 value in the migration assay). The text has this:
A chemotaxis assay can be used to determine the efficacy of potential receptor antagonists at blocking the migration mediated through chemokine receptors, such as CCR6. This assay is routinely performed using the ChemoTX® microchamber system with a 5-μm pore-sized polycarbonate membrane. Chemokine receptor-expressing cells are required for such an assay. In this case, Ba/F3 cells (Palacios et al., Nature, 309:126, 1984) transfected with the gene for human CCR6 under control of the CMV promotor were used. To begin such an assay, hCCR6-transfected Ba/F3 cells are first grown for 24 hr in medium supplemented with sodium butyrate, which increases CCR6 transcription via the CMV promotor. The prepared Ba/F3 cells, are collected by centrifugation at 400×g at room temperature, then suspended at 4 million/ml in human serum. The compound being tested is serially diluted from a maximum final concentration of 10 μM (or an equivalent volume of its solvent (DMSO)) and is then added to the cell/serum mixture. Separately, recombinant human CCL20 (MIP-3α/LARC) at its EC50 concentration (10 nM) is placed in the lower wells of the ChemoTX® plate. The 5-μm (pore size) polycarbonate membrane is placed onto the plate, and 20 μL of the cell/compound mixture is transferred onto each well of the membrane. The plates are incubated at 37° C. for 45 minutes, after which the polycarbonate membranes are removed and 5 μl of the DNA-intercalating dye CyQUANT (Invitrogen, Carlsbad, CA) is added to the lower wells. The amount of fluorescence, corresponding to the number of migrated cells, is measured using a Spectrafluor Plus plate reader (TECAN, San Jose, CA).
Turning to `O=C1Cc2cc(-c3ccc(S(=O)(=O)N4CCC(Nc5ccc(C(F)(F)F)cn5)CC4)cc3)cnc2N1` [Example 1.073], the IC50 is less than 5 nM.

For `NC(=O)N1CCC2(CC1)C(=O)Nc1ccc(-c3ccc(S(=O)(=O)N4CCC(Nc5ccc(C(F)(F)F)cn5)CC4)cc3)cc12` [Example 1.025], the IC50 lay within 5 to 100 nM.

Take `CC(C)(C)OC(=O)N[C@@H]1CCCN(c2ccc(S(=O)(=O)N3CCC(Nc4ccc(C(F)(F)F)cn4)CC3)cc2)C1` [Example 1.213]: the IC50 fell in the range of 100 to 10000 nM.

Turning to `CC(C)(C)[Si](C)(C)OCCN1Cc2ccc(-c3ccc(S(=O)(=O)N4CCC(Nc5ccc(C(F)(F)F)cn5)CC4)cc3)cc2C1=O` [Example 1.038], the IC50 lay within 5 to 100 nM.

Turning to `N#Cc1n[nH]c2ccc(-c3ccc(S(=O)(=O)N4CCC(Nc5ccc(C(F)(F)F)cn5)CC4)cc3)cc12` [Example 1.055], the IC50 was less than 5 nM.

In the case of `CC(=O)N1Cc2ccc(-c3ccc(S(=O)(=O)N4CCC(Nc5ccc(C(F)(F)F)cn5)CC4)cc3)cc2C1` [Example 1.053], the IC50 was less than 5 nM.

With `CC(=O)N[C@H]1CCCN(c2ccc(S(=O)(=O)N3CCC(Nc4ccc(C(F)(F)F)cn4)CC3)cc2)C1` [Example 1.193], the IC50 fell in the range of 100 to 10000 nM.

Regarding `O=C1CCCCN1c1ccc(S(=O)(=O)N2CCC(Nc3ccc(C(F)(F)F)cn3)CC2)cc1` [Example 1.227], the IC50 is 100 to 10000 nM.

For `O=C1c2ccc(-c3ccc(S(=O)(=O)N4CCC(Nc5ccc(C(F)(F)F)cn5)CC4)cc3)cc2CN1CCO` [Example 1.021], the IC50 was 5 to 100 nM.

As for `CC(=O)N1CCC(c2ccc(S(=O)(=O)N3CCC(Nc4ccc(C(F)(F)F)cn4)CC3)cc2)CC1` [Example 1.184], the IC50 is 5 to 100 nM.

For the compound `NC(=O)CC1CCCN(c2ccc(S(=O)(=O)N3CCC(Nc4ccc(C(F)(F)F)cn4)CC3)cc2)C1` (centres unmarked) [Example 1.138], the IC50 is 100 to 10000 nM.

Consider `CS(=O)(=O)N1CCN(c2ccc(S(=O)(=O)N3CCC(Nc4ccc(C(F)(F)F)cn4)CC3)cc2)CC1` [Example 1.200], for which the IC50 lay in the range of 5 to 100 nM.

As to `CC(=O)NCCC1CCN(c2ccc(S(=O)(=O)N3CCC(Nc4ccc(C(F)(F)F)cn4)CC3)cc2)CC1` [Example 1.126], the IC50 is 5 to 100 nM.

`O=C1CCc2cc(-c3ccc(S(=O)(=O)N4CCC(Nc5ccc(C(F)(F)F)cn5)CC4)cc3)ccc2N1` [Example 1.078]: the IC50 was 5 to 100 nM.

As for `COc1n[nH]c2ccc(-c3ccc(S(=O)(=O)N4CCC(Nc5ccc(C(F)(F)F)cn5)CC4)cc3)cc12` [Example 1.077], the IC50 was 5 to 100 nM.

As to `N#Cc1c[nH]c2ccc(-c3ccc(S(=O)(=O)N4CCC(Nc5ccc(C(F)(F)F)cn5)CC4)cc3)cc12` [Example 1.114], the IC50 was less than 5 nM.

As to `O=C1NCCc2ccc(-c3ccc(S(=O)(=O)N4CCC(Nc5ccc(C(F)(F)F)cn5)CC4)cc3)cc21` [Example 1.066], the IC50 is less than 5 nM.

In the case of `N#Cc1cc2ccc(-c3ccc(S(=O)(=O)N4CCC(Nc5ccc(C(F)(F)F)cn5)CC4)cc3)cc2[nH]1` [Example 1.079], the IC50 is 5 to 100 nM.

Turning to `N#Cc1c(N)[nH]c2ccc(-c3ccc(S(=O)(=O)[C@H]4CC[C@H](Nc5ccc(C(F)(F)F)cn5)CC4)cc3)cc12` [Example 1.070], the IC50 was less than 5 nM.

`NC(=O)[C@H]1[C@@H]2CN(c3ccc(S(=O)(=O)N4CCC(Nc5ccc(C(F)(F)F)cn5)CC4)cc3)C[C@@H]21` [Example 1.162]: the IC50 was in the range of 100 to 10000 nM.

On to `O=S(=O)(c1ccc(N2CCC[C@@H](O)C2)cc1)N1CCC(Nc2ccc(C(F)(F)F)cn2)CC1` [Example 1.185], for which the IC50 fell in the range of 5 to 100 nM.

`NC(=O)N1CCN(c2ccc(S(=O)(=O)N3CCC(Nc4ccc(C(F)(F)F)cn4)CC3)cc2)CC1` [Example 1.204]: the IC50 was 5 to 100 nM.

Consider `CN(C)CCn1cc(C#N)c2cc(-c3ccc(S(=O)(=O)N4CCC(Nc5ccc(C(F)(F)F)cn5)CC4)cc3)cnc21` [Example 1.001], for which the IC50 is 5 to 100 nM.

With `O=S(=O)(c1ccc(N2CCC(Nc3ccccc3)CC2)cc1)N1CCC(Nc2ccc(C(F)(F)F)cn2)CC1` [Example 1.220], the IC50 lay in the range of 5 to 100 nM.

In the case of `N#Cc1c[nH]c2ncc(-c3ccc(S(=O)(=O)N4CCC(Nc5ccc(C(F)(F)F)cn5)CC4)cc3)cc12` [Example 1.088], the IC50 was less than 5 nM.

Regarding `O=C1CNC(=O)C2(CCN(c3ccc(S(=O)(=O)N4CCC(Nc5ccc(C(F)(F)F)cn5)CC4)cc3)CC2)N1` [Example 1.139], the IC50 fell in the range of 100 to 10000 nM.

On to `O=c1[nH]c(=O)c2ccc(-c3ccc(S(=O)(=O)N4CCC(Nc5ccc(C(F)(F)F)cn5)CC4)cc3)cc2[nH]1` [Example 1.057], for which the IC50 fell in the range of 5 to 100 nM.

Take `NC(=O)c1cc(-c2ccc(S(=O)(=O)N3CCC(Nc4ccc(C(F)(F)F)cn4)CC3)cc2)cc2c1NC(=O)C2` [Example 1.005]: the IC50 is less than 5 nM.

In the case of `O=S(=O)(c1ccc(N2CCn3ccnc3C2)cc1)N1CCC(Nc2ccc(C(F)(F)F)cn2)CC1` [Example 1.229], the IC50 was in the range of 100 to 10000 nM.

Consider `O=S(=O)(c1ccc(N2CC[C@H](O)C2)cc1)N1CCC(Nc2ccc(C(F)(F)F)cn2)CC1` [Example 1.197], for which the IC50 lay in the range of 100 to 10000 nM.

Consider `Cc1nc2c(s1)CN(c1ccc(S(=O)(=O)N3CCC(Nc4ccc(C(F)(F)F)cn4)CC3)cc1)CC2` [Example 1.221], for which the IC50 was in the range of 5 to 100 nM.

As to `CC(C)(O)OC(=O)N1CCC2(CC1)C(=O)Nc1ccc(-c3ccc(S(=O)(=O)N4CCC(Nc5ccc(C(F)(F)F)cn5)CC4)cc3)cc12` [Example 1.044], the IC50 lay in the range of 5 to 100 nM.

With `CN1CCN(c2ccc(S(=O)(=O)N3CCC(Nc4ccc(C(F)(F)F)cn4)CC3)cc2)CC1` [Example 1.232], the IC50 lay within 100 to 10000 nM.

Consider `NC(=O)N1CC2(C1)CN(c1ccc(S(=O)(=O)N3CCC(Nc4ccc(C(F)(F)F)cn4)CC3)cc1)C2` [Example 1.154], for which the IC50 is less than 5 nM.

For the compound `NC(=O)N1CCC2(CCN(c3ccc(S(=O)(=O)N4CCC(Nc5ccc(C(F)(F)F)cn5)CC4)cc3)C2)C1` (centres unmarked) [Example 1.175], the IC50 was 5 to 100 nM.

In the case of `O=C1NCc2cc(-c3ccc(S(=O)(=O)N4CCC(Nc5ccc(C(F)(F)F)cn5)CC4)cc3)ccc21` [Example 1.117], the IC50 was less than 5 nM.

`CS(=O)(=O)NC1CC2(C1)CN(c1ccc(S(=O)(=O)N3CCC(Nc4ccc(C(F)(F)F)cn4)CC3)cc1)C2` [Example 1.161]: the IC50 lay within 5 to 100 nM.

In the case of `O=C1c2cc(-c3ccc(S(=O)(=O)N4CCC(Nc5ccc(C(F)(F)F)cn5)CC4)cc3)ccc2CN1CCO` [Example 1.033], the IC50 is less than 5 nM.

For `O=S(=O)(c1ccc(-c2ccc3c(c2)CNC3)cc1)N1CCC(Nc2ccc(C(F)(F)F)cn2)CC1` [Example 1.058], the IC50 is 100 to 10000 nM.

For the compound `O=C1NC2(CCN(c3ccc(S(=O)(=O)N4CCC(Nc5ccc(C(F)(F)F)cn5)CC4)cc3)CC2)CO1` [Example 1.148], the IC50 was less than 5 nM.

Consider `NC(=O)CC1CN(c2ccc(S(=O)(=O)N3CCC(Nc4ccc(C(F)(F)F)cn4)CC3)cc2)C1` [Example 1.144], for which the IC50 fell in the range of 100 to 10000 nM.

With `N#Cc1c[nH]c2ncc(-c3ccc(S(=O)(=O)N4CCC(Nc5ccc(C(F)(F)F)cc5)CC4)cc3)cc12` [Example 1.056], the IC50 is less than 5 nM.

Turning to `NC(=O)c1cc2cc(-c3ccc(S(=O)(=O)N4CCC(Nc5ccc(C(F)(F)F)cn5)CC4)cc3)ccc2[nH]1` [Example 1.098], the IC50 lay in the range of 5 to 100 nM.

Regarding `O=C1CN(c2ccc(S(=O)(=O)N3CCC(Nc4ccc(C(F)(F)F)cn4)CC3)cc2)CCN1` [Example 1.211], the IC50 lay within 100 to 10000 nM.

On to `NCCN1C(=O)C2(CC2)c2cc(-c3ccc(S(=O)(=O)N4CCC(Nc5ccc(C(F)(F)F)cn5)CC4)cc3)cnc21` [Example 1.002], for which the IC50 was 5 to 100 nM.

For the compound `O=c1[nH]c2ccc(-c3ccc(S(=O)(=O)N4CCC(Nc5ccc(C(F)(F)F)cn5)CC4)cc3)cc2[nH]1` [Example 1.115], the IC50 fell in the range of 5 to 100 nM.

`O=C1Nc2ccc(-c3ccc(S(=O)(=O)N4CCC(Nc5ccc(C(F)(F)F)cn5)CC4)cc3)cc2C12CC2` [Example 1.051]: the IC50 is less than 5 nM.

For `O=S(=O)(c1ccc(N2CCC3(CC2)CC(O)C3)cc1)N1CCC(Nc2ccc(C(F)(F)F)cn2)CC1` [Example 1.158], the IC50 was in the range of 5 to 100 nM.

For the compound `CC(C)(C)OC(=O)N[C@H]1CCCN(c2ccc(S(=O)(=O)N3CCC(Nc4ccc(C(F)(F)F)cn4)CC3)cc2)C1` [Example 1.219], the IC50 was 100 to 10000 nM.

Turning to `O=S(=O)(c1ccc(-c2ccc3c(c2)NCCO3)cc1)N1CCC(Nc2ccc(C(F)(F)F)cn2)CC1` [Example 1.035], the IC50 lay in the range of 5 to 100 nM.

These data come from patent US12012403B2, “Aryl sulfonyl compounds as CCR6 inhibitors” (CHEMOCENTRYX, INC., priority 2021, dated 2024).
